Laboratory results as given in patent US12077503B2, “Substituted cyclic amides and their use as herbicides” (FMC CORPORATION, priority 2015, dated 2024).

How the values were obtained:
Format in all cases: in vivo
[1] = tested on: blackgrass (Alopecurus myosuroides); test: Test A postemergence; conditions: Alopecurus myosuroides, post-emergence, 240 h
Outline: (§1)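 Compounds were formulated in a non-phytotoxic solvent mixture with surfactant and applied as a preemergence directed soil spray after seeding, or sprayed postemergence over plants 2 to 10 cm tall at the one- to two-leaf stage. Evaluation after about 10 d compared treated with untreated controls, using a scale from 0 (no effect) to 100 (complete control).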

corn (Zea mays) = test: Test A postemergence; conditions: Zea mays, post-emergence, 240 h
Outline: as §1

[2] = tested on: Galium (catchweed bedstraw, Galium aparine); test: Test A postemergence; conditions: Galium, post-emergence, 240 h
Outline: as §1

[3] = tested on: pigweed (Amaranthus retroflexus); test: Test A postemergence; conditions: Amaranthus retroflexus, post-emergence, 240 h, 125 g ai/ha, postemergence, visual injury vs untreated controls after approx. 10 d; 0 = no effect, 100 = complete control; read-out: Pigweed plant response rating (0 to 100 scale)
Outline: as §1

[4] = tested on: wheat (Triticum aestivum); test: Test A postemergence; conditions: Triticum aestivum, post-emergence, 240 h, 125 g ai/ha, postemergence, visual injury vs untreated controls after approx. 10 d; 0 = no effect, 100 = complete control; read-out: Wheat plant response rating (0 to 100 scale)
Outline: as §1

Kochia (Kochia scoparia) [5] = test: Test A postemergence; conditions: Bassia scoparia, post-emergence, 240 h
Outline: as §1

[6] = tested on: ragweed (common ragweed, Ambrosia elatior); test: Test A postemergence; conditions: Ambrosia artemisiifolia, post-emergence, 240 h, 125 g ai/ha, postemergence, visual injury vs untreated controls after approx. 10 d; 0 = no effect, 100 = complete control; read-out: Ragweed plant response rating (0 to 100 scale)
Outline: as §1

[7] = tested on: ryegrass, Italian (Italian ryegrass, Lolium multiflorum); test: Test A postemergence; conditions: Lolium multiflorum, post-emergence, 240 h, 125 g ai/ha, postemergence, visual injury vs untreated controls after approx. 10 d; 0 = no effect, 100 = complete control; read-out: Ryegrass, Italian plant response rating (0 to 100 scale)
Outline: as §1

[8] = tested on: giant foxtail (Setaria faberii); test: Test A postemergence; conditions: Setaria faberi, post-emergence, 240 h
Outline: as §1

[9] = tested on: barnyardgrass (Echinochloa crus-galli); test: Test A postemergence; conditions: Echinochloa crus-galli, post-emergence, 240 h
Outline: as §1

[10] = tested on: pigweed (Amaranthus retroflexus); test: Test A preemergence; conditions: Amaranthus retroflexus, pre-emergence, 240 h, 0 to 100 scale where 0 is no effect and 100 is complete control, read-out: Pigweed plant response rating
Kochia (Kochia scoparia) [11] = test: Test A preemergence; conditions: Bassia scoparia, pre-emergence, 240 h, 0 to 100 scale where 0 is no effect and 100 is complete control, read-out: Kochia plant response rating
Outline: as §1

[12] = tested on: ragweed (common ragweed, Ambrosia elatior); test: Test A preemergence; conditions: Ambrosia artemisiifolia, pre-emergence, 240 h, 0 to 100 scale where 0 is no effect and 100 is complete control, read-out: Ragweed plant response rating
Outline: as §1

[13] = tested on: ryegrass, Italian (Italian ryegrass, Lolium multiflorum); test: Test A preemergence; conditions: Lolium multiflorum, pre-emergence, 240 h, 0 to 100 scale where 0 is no effect and 100 is complete control, read-out: Ryegrass, Italian plant response rating
Outline: as §1

[14] = tested on: giant foxtail (Setaria faberii); test: Test A preemergence; conditions: Setaria faberi, pre-emergence, 240 h, 0 to 100 scale where 0 is no effect and 100 is complete control, read-out: Foxtail, Giant plant response rating
Outline: as §1

[15] = tested on: barnyardgrass (Echinochloa crus-galli); test: Test A preemergence; conditions: Echinochloa crus-galli, pre-emergence, 240 h, 0 to 100 scale where 0 is no effect and 100 is complete control, read-out: Barnyardgrass plant response rating
Outline: as §1

[16] = tested on: ducksalad (Heteranthera limosa); test: Test B flooded paddy test; conditions: Heteranthera limosa, 250 g ai/ha, Flood; 0 to 100 scale where 0 is no effect and 100 is complete control; read-out: Ducksalad plant response rating
Outline: (§2)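 Plants at 2-leaf stage flooded to 3 cm above soil, with compounds applied directly to paddy water and that depth maintained. Plants kept in greenhouse 13–15 d. Visual rating versus controls on a 0 (no effect) to 100 (complete control) scale.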

rice (Oryra sativa) = test: Test B flooded paddy test; conditions: Oryza sativa, 250 g ai/ha, Flood; 0 to 100 scale where 0 is no effect and 100 is complete control; read-out: Rice plant response rating
Outline: as §2

[17] = tested on: sedge, umbrella (small-flower umbrella sedge, Cyperus difformis); test: Test B flooded paddy test; conditions: Cyperus difformis, 250 g ai/ha, Flood; 0 to 100 scale where 0 is no effect and 100 is complete control; read-out: Sedge, Umbrella plant response rating
Outline: as §2

[18] = tested on: barnyardgrass (Echinochloa crus-galli); test: Test B flooded paddy test; conditions: Echinochloa crus-galli, 250 g ai/ha, Flood; 0 to 100 scale where 0 is no effect and 100 is complete control; read-out: Barnyardgrass plant response rating
Outline: as §2

[19] = 125 g ai/ha, preemergence, visual injury rating, approximately 10 d

COc1ccc(C(F)(F)F)cc1[C@H]1CN(C)C(=O)[C@@H]1C(=O)Nc1cccc(F)c1F [Compound 1184]
pest or weed control at 125 g/ha ([1]; 125 g ai/ha, postemergence, visual injury vs untreated controls after approx. 10 d, 0 = no effect, 100 = complete control, read-out: Blackgrass plant response rating (0 to 100 scale)): 60%
pest or weed control at 31 g/ha ([1]; Postemergence, 31 g ai/ha, visual injury after approx. 10 d, 0 to 100 scale, 0 no effect, 100 complete control, read-out: Plant response rating, Blackgrass): 30%
plant injury at 125 g/ha (corn (Zea mays); 125 g ai/ha, postemergence, visual injury vs untreated controls after approx. 10 d, 0 = no effect, 100 = complete control, read-out: Corn plant response rating (0 to 100 scale)): 40%
Corn plant response rating (crop injury, 0 = no effect, 100 = complete kill) at 31 g/ha (corn (Zea mays); Postemergence, 31 g ai/ha, visual injury after approx. 10 d, 0 to 100 scale, 0 no effect, 100 complete control): 50%
pest or weed control at 125 g/ha ([2]; 125 g ai/ha, postemergence, visual injury vs untreated controls after approx. 10 d, 0 = no effect, 100 = complete control, read-out: Galium plant response rating (0 to 100 scale)): 20%
pest or weed control at 31 g/ha ([2]; Postemergence, 31 g ai/ha, visual injury after approx. 10 d, 0 to 100 scale, 0 no effect, 100 complete control, read-out: Plant response rating, Galium): 0%
pest or weed control at 125 g/ha [3]: 0%
plant injury at 125 g/ha [4]: 60%
pest or weed control at 125 g/ha (Kochia (Kochia scoparia) [5]; 125 g ai/ha, postemergence, visual injury vs untreated controls after approx. 10 d, 0 = no effect, 100 = complete control, read-out: Kochia plant response rating (0 to 100 scale)): 0%
pest or weed control at 31 g/ha (Kochia (Kochia scoparia) [5]; Postemergence, 31 g ai/ha, visual injury after approx. 10 d, 0 to 100 scale, 0 no effect, 100 complete control, read-out: Plant response rating, Kochia): 0%
pest or weed control at 125 g/ha [6]: 0%
pest or weed control at 125 g/ha [7]: 30%
pest or weed control at 125 g/ha ([8]; 125 g ai/ha, postemergence, visual injury vs untreated controls after approx. 10 d, 0 = no effect, 100 = complete control, read-out: Foxtail, Giant plant response rating (0 to 100 scale)): 80%
pest or weed control at 31 g/ha ([8]; Postemergence, 31 g ai/ha, visual injury after approx. 10 d, 0 to 100 scale, 0 no effect, 100 complete control, read-out: Plant response rating, Foxtail, Giant): 80%
pest or weed control at 125 g/ha ([9]; 125 g ai/ha, postemergence, visual injury vs untreated controls after approx. 10 d, 0 = no effect, 100 = complete control, read-out: Barnyardgrass plant response rating (0 to 100 scale)): 80%
pest or weed control at 31 g/ha ([9]; Postemergence, 31 g ai/ha, visual injury after approx. 10 d, 0 to 100 scale, 0 no effect, 100 complete control, read-out: Plant response rating, Barnyardgrass): 70%
pest or weed control at 31 g/ha ([10]; 31 g ai/ha, Preemergence): 0%
pest or weed control at 125 g/ha [10, 19]: 0%
pest or weed control at 31 g/ha (Kochia (Kochia scoparia) [11]; 31 g ai/ha, Preemergence): 0%
pest or weed control at 125 g/ha (Kochia (Kochia scoparia) [11]; [19]): 0%
pest or weed control at 31 g/ha ([12]; 31 g ai/ha, Preemergence): 0%
pest or weed control at 125 g/ha [12, 19]: 0%
pest or weed control at 31 g/ha ([13]; 31 g ai/ha, Preemergence): 40%
pest or weed control at 125 g/ha [13, 19]: 50%
pest or weed control at 31 g/ha ([14]; 31 g ai/ha, Preemergence): 80%
pest or weed control at 125 g/ha [14, 19]: 90%
pest or weed control at 31 g/ha ([15]; 31 g ai/ha, Preemergence): 90%
pest or weed control at 125 g/ha [15, 19]: 100%
pest or weed control at 250 g/ha [16]: 95%
pest or weed control at 250 g/ha (rice (Oryra sativa)): 15%
pest or weed control at 250 g/ha [17]: 0%
pest or weed control at 250 g/ha [18]: 90%
